These compounds were tested against SARM1 (ARM-SAM-TIR) (Homo sapiens (Human), UniProt Q6SZW1) (assay: ARM-SAM-TIR SARM1 IC50 assay (NADase activity, NAD+ cleavage, RapidFire MS)). Details: ARM-SAM-TIR lysate 5 μg/mL, 2 h pre-incubation, 5 μM NAD+, 2 hr room temperature.
Format: biochemical
Outline: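 Lysate of NRK1-HEK293T cells transfected with full-length ARM-SAM-TIR SARM1 (5 μg/mL final) pre-incubated with compound (1% DMSO) 2 h at room temperature in Dulbecco's PBS. Reaction started with 5 μM NAD+, run 2 hr at room temperature, then stopped with TCA/acetonitrile. NAD+ and ADPR quantified by RapidFire MS.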

Sequence of SARM1 (ARM-SAM-TIR) (Q6SZW1 other isoform, or with tags, fused parts or gaps): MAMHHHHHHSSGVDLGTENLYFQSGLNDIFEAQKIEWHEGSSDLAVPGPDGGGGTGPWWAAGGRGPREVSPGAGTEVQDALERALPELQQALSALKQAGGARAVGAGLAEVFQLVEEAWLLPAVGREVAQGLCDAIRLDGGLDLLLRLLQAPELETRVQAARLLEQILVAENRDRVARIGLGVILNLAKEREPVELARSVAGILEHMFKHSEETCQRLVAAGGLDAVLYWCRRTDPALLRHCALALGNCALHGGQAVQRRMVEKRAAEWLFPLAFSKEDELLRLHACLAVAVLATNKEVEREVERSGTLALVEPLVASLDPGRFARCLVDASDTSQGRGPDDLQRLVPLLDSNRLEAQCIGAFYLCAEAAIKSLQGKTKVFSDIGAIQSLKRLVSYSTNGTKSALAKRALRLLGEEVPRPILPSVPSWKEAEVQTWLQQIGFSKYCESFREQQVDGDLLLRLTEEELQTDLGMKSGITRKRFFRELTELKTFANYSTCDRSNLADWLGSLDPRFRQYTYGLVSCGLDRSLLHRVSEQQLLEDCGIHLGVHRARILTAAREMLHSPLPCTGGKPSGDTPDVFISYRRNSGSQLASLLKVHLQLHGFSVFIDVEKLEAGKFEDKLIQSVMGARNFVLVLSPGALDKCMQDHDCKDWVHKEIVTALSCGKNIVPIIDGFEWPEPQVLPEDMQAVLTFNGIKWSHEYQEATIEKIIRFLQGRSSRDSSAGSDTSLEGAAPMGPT

SMILES	IC50
NS(=O)(=O)c1c(-c2ccncc2)n[nH]c1NC(=O)CCc1ccc(Cl)cc1 [Example 161]	5 to 15 µM
O=C(CCc1ccc(F)c(F)c1)Nc1cc(-c2ccncc2)n[nH]1 [Example 17]	< 5 µM
O=C(C[C@H]1CCOc2cc(Cl)ccc21)Nc1nnc(-c2ccncc2)[nH]1 [Example 208]	< 5 µM
O=C(CCc1ccc(Cl)nc1)Nc1[nH]nc(-c2ccncc2)c1F [Example 266]	< 5 µM
Cc1c(-c2ccncc2)n[nH]c1NC(=O)CCc1ccc(Cl)c(C#N)c1 [Example 270]	< 5 µM
[2H]C([2H])(C(=O)Nc1cc(-c2ccnnc2)n[nH]1)C([2H])([2H])c1ccc(Cl)nc1 [Example 190]	< 5 µM
O=C(CCc1ccc(Cl)cc1)Nc1nnc(-c2ccncc2)o1 [Example 100]	> 30 µM
O=C(CCc1ccc(Cl)cc1)Nc1nnc(-c2ccncc2Cl)[nH]1 [Example 59]	< 5 µM
O=C(C[C@@H]1CCc2ccccc21)Nc1nnc(-c2ccncc2)[nH]1 [Example 67]	< 5 µM
[2H]C([2H])([2H])c1c(-c2ccncc2)n[nH]c1NC(=O)C([2H])([2H])C([2H])([2H])c1ccc(Cl)nc1 [Example 150]	< 5 µM
Cc1cnccc1-c1nnc(NC(=O)CCc2ccc(Cl)cc2)[nH]1 [Example 217]	< 5 µM
Cc1ccc(OCC(=O)Nc2nnc(-c3ccncc3)[nH]2)c(C)c1 [Example 149]	15 to 30 µM
Cc1c(-c2ccnnc2)n[nH]c1NC(=O)CCc1ccc(Cl)c(F)c1 [Example 154]	< 5 µM
O=C(CCc1ccc(C(F)F)cc1)Nc1nnc(-c2ccncc2)[nH]1 [Example 97]	< 5 µM
O=C(Nc1cc(-c2ccncc2)n[nH]1)C(O)Cc1ccc(Cl)cc1 (centres unmarked) [Example 275]	< 5 µM
O=C(CCc1ccc(Cl)cc1)Nc1cc(-c2c(F)cncc2Br)n[nH]1 [Example 324]	5 to 15 µM
Cc1c(-c2ccncc2)n[nH]c1NC(=O)CCc1ccc(F)cc1 [Example 221]	< 5 µM
NC(=O)c1cnccc1-c1nnc(NC(=O)CCc2ccc(Cl)cc2)[nH]1 [Example 286]	< 5 µM
N#Cc1c(-c2ccnnc2)n[nH]c1NC(=O)CCc1ccc(Cl)cc1 [Example 312]	< 5 µM
N#Cc1cnccc1-c1nnc(NC(=O)CCc2ccc(Cl)cc2)[nH]1 [Example 225]	< 5 µM
Cc1c(-c2ccncc2)n[nH]c1NC(=O)CCc1ccc(Cl)cc1 [Example 18]	< 5 µM
Nc1cnccc1-c1cc(NC(=O)CCc2ccc(Cl)nc2)[nH]n1 [Example 294]	< 5 µM

SMILES	IC50
O=C(NCc1ccc(Cl)cc1)Nc1nnc(-c2ccncc2)[nH]1 [Example 92]	< 5 µM
CC1(c2c(-c3ccnnc3)n[nH]c2NC(=O)CCc2ccc(Cl)cc2)CC1 [Example 311]	< 5 µM
O=C(Nc1cc(-c2ccnnc2)n[nH]1)[C@H]1C[C@H](c2ccc(Cl)nc2)C1 [Example 210]	< 5 µM
O=C(Nc1nnc(-c2ccncc2)[nH]1)[C@@H]1CCc2ccccc2C1 [Example 89]	5 to 15 µM
Cn1c(CCC(=O)Nc2nnc(-c3ccncc3)[nH]2)nc2ccccc21 [Example 122]	15 to 30 µM
O=C(CC1CCCc2ccccc21)Nc1nnc(-c2ccncc2)[nH]1 (centres unmarked) [Example 132]	< 5 µM
CC1(c2c(-c3ccncc3)n[nH]c2NC(=O)CCc2ccc(Cl)cc2)CC1 [Example 303]	< 5 µM
CNC(=O)Cc1c(-c2ccncc2)n[nH]c1NC(=O)CCc1ccc(Cl)nc1 [Example 285]	< 5 µM
O=C(CCc1ccc(Cl)cc1)Nc1cc(-c2ccncc2)[nH]n1 [Example 114]	< 5 µM
O=C(CCc1ccc(C(F)(F)F)s1)Nc1cc(-c2ccncc2)n[nH]1 [Example 2]	< 5 µM
O=C(Nc1nnc(-c2ccncc2)[nH]1)[C@@H]1C[C@@H]1c1ccccc1 [Example 103]	15 to 30 µM
NC(=O)Cc1c(-c2ccncc2)n[nH]c1NC(=O)CCc1ccc(Cl)nc1 [Example 309]	< 5 µM
CS(=O)(=O)c1ccc(CCC(=O)Nc2nnc(-c3ccncc3)[nH]2)cc1 [Example 126]	15 to 30 µM
N#Cc1cnccc1-c1cc(NC(=O)CCc2ccc(Cl)cc2)[nH]n1 [Example 238]	< 5 µM
Cn1nc(-c2ccncc2)nc1NC(=O)CCc1ccccc1 [Example 110]	> 30 µM
CC(C)(C)OC(=O)N(CC(=O)Nc1nnc(-c2ccncc2)[nH]1)c1ccccc1 [Example 70]	> 30 µM
O=C(CCc1ccc(Cl)nc1)Nc1nnc(-c2ccnnc2)[nH]1 [Example 21]	< 5 µM
O=C(CCc1ccc(Cl)cc1)Nc1[nH]nc(-c2ccnnc2)c1C1CC1 [Example 273]	< 5 µM
O=C(Cc1c[nH]c2cc(Cl)ccc12)Nc1nnc(-c2ccncc2)[nH]1 [Example 35]	5 to 15 µM
CN(C)C(=O)Cc1c(-c2ccncc2)n[nH]c1NC(=O)CCc1ccc(Cl)nc1 [Example 316]	< 5 µM
Cc1c(-c2ccncc2)n[nH]c1NC(=O)C[C@@H]1CCOc2cc(Cl)ccc21 [Example 215]	< 5 µM
O=C(CCc1cn2ccccc2n1)Nc1nnc(-c2ccncc2)[nH]1 [Example 123]	15 to 30 µM

SMILES	IC50
O=C(CCc1ccc(Cl)cc1)Nc1nnc(-c2ccnnc2)[nH]1 [Example 53]	< 5 µM
CCOC(=O)Cc1c(-c2ccncc2)n[nH]c1NC(=O)CCc1ccc(Cl)cc1 [Example 229]	< 5 µM
O=C(CCc1ccc(Cl)cc1)Nc1nc(-c2ccncc2)ns1 [Example 61]	< 5 µM
O=C(CCc1ccc(Cl)cc1F)Nc1nnc(-c2ccncc2)[nH]1 [Example 46]	< 5 µM
O=C(CC1COCc2ccccc21)Nc1nnc(-c2ccncc2)[nH]1 (centres unmarked) [Example 73]	5 to 15 µM
[2H]C([2H])(C(=O)Nc1[nH]nc(-c2ccnnc2)c1C)C([2H])([2H])c1ccc(Cl)cc1 [Example 177]	< 5 µM
O=C(Nc1nnc(-c2ccncc2)[nH]1)[C@H]1C[C@@H](c2ccc(Cl)cc2)C1 [Example 23]	< 5 µM
O=C(CCc1ccc(Cl)cc1)Nc1[nH]nc(-c2ccncc2)c1CO [Example 194]	< 5 µM
O=C(Nc1nnc(-c2ccncc2)[nH]1)N[C@H]1CCOc2cc(Cl)ncc21 [Example 277]	< 5 µM
NC(=O)Cc1c(-c2ccncc2)n[nH]c1NC(=O)CCc1ccc(Cl)cc1 [Example 302]	< 5 µM
O=C(Nc1nnc(-c2ccncc2)[nH]1)N1CCc2cc(Cl)ccc2C1 [Example 185]	< 5 µM
Cc1c(-c2ccncc2)n[nH]c1NC(=O)CC1Cc2ccccc2C1 [Example 199]	5 to 15 µM
Cc1c(-c2ccncc2)n[nH]c1N(C)C(=O)CCc1ccc(Cl)nc1 [Example 288]	5 to 15 µM
Cc1ccc(CCC(=O)Nc2nnc(-c3ccncc3)[nH]2)cn1 [Example 83]	5 to 15 µM
CN(C)C(Cc1ccccc1)C(=O)Nc1nnc(-c2ccncc2)[nH]1 (centres unmarked) [Example 52]	> 30 µM
O=C(CCC1CCCCC1)Nc1nnc(-c2ccncc2)[nH]1 [Example 134]	5 to 15 µM
O=C(COc1ccc(Cl)cc1)Nc1nnc(-c2ccncc2)[nH]1 [Example 102]	5 to 15 µM
[2H]C([2H])(C(=O)Nc1nnc(-c2ccncc2)[nH]1)C([2H])([2H])c1ccc(Cl)cc1 [Example 169]	< 5 µM
Cc1c(-c2ccncc2)n[nH]c1NC(=O)[C@@H](O)Cc1ccc(Cl)cc1 [Example 290]	< 5 µM
O=C(CCc1ccc(Cl)nc1)Nc1[nH]nc(-c2ccnnc2)c1C1CC1 [Example 272]	< 5 µM
CCC(C)c1cc(C(=O)Nc2[nH]nc(-c3ccncc3)c2C)on1 (centres unmarked) [Example 244]	5 to 15 µM
O=C(CCc1ccc(Cl)cc1)Nc1[nH]nc(-c2ccncc2)c1Br [Example 167]	< 5 µM

SMILES	IC50
[2H]C([2H])(C(=O)Nc1nnc(-c2ccnnc2)[nH]1)C([2H])([2H])c1ccc(Cl)cc1 [Example 230]	< 5 µM
Cc1c(-c2ccncc2F)n[nH]c1NC(=O)CCc1ccc(Cl)s1 [Example 308]	< 5 µM
COc1ccc(CCC(=O)Nc2nnc(-c3ccncc3)[nH]2)cc1 [Example 127]	< 5 µM
O=C(Cc1ccccc1)Nc1nnc(-c2ccncc2)[nH]1 [Example 143]	15 to 30 µM
Nc1nnc(-c2ccncc2)[nH]1 [Example 147]	> 30 µM
O=C(COc1ccccc1)Nc1nnc(-c2ccncc2)[nH]1 [Example 145]	> 30 µM
O=C(CCc1cnc(C(F)(F)F)nc1)Nc1nnc(-c2ccncc2)[nH]1 [Example 87]	< 5 µM
O=C(NCc1ccc(Cl)nc1)Nc1nnc(-c2ccncc2)[nH]1 [Example 165]	< 5 µM
O=C(CC1CCOc2cc(Cl)ccc21)Nc1nnc(-c2ccnnc2)[nH]1 (centres unmarked) [Example 193]	< 5 µM
O=C(CCc1ccc(Br)cc1)Nc1nnc(-c2ccncc2)[nH]1 [Example 105]	< 5 µM
[2H]C([2H])(C(=O)Nc1cc(-c2ccnnc2)n[nH]1)C([2H])([2H])c1ccc(Cl)cc1 [Example 189]	< 5 µM
O=C(C[C@H]1CCOc2ccccc21)Nc1nnc(-c2ccncc2)[nH]1 [Example 72]	< 5 µM
N[C@@H](Cc1ccc(Cl)cc1)C(=O)Nc1nnc(-c2ccncc2)[nH]1 [Example 56]	< 5 µM
CNC(=O)Cc1c(-c2ccncc2)n[nH]c1NC(=O)CCc1ccc(Cl)cc1 [Example 263]	< 5 µM
COc1cccc(CCC(=O)Nc2nnc(-c3ccncc3)[nH]2)c1 [Example 108]	5 to 15 µM
O=C(CCc1ccc(Cl)s1)Nc1nnc(-c2ccnnc2)[nH]1 [Example 12]	< 5 µM
[2H]C([2H])(C(=O)Nc1[nH]nc(-c2ccncc2)c1C)C([2H])([2H])c1ccc(Cl)cc1 [Example 170]	< 5 µM
N[C@H](Cc1ccc(Cl)cc1)C(=O)Nc1nnc(-c2ccncc2)[nH]1 [Example 82]	< 5 µM
O=C(CCc1ccc(Cl)cc1)Nc1[nH]nc(-c2ccncc2)c1C1CC1 [Example 227]	< 5 µM
O=C(CCc1ccc(F)c(F)c1)Nc1nnc(-c2ccncc2)[nH]1 [Example 16]	< 5 µM
